Data taken from patent US20170137880A1, “METHOD FOR TREATING DEPRESSION AND MAJOR DEPRESSIVE DISORDER” (Takeda Pharmaceutical Company Limited, priority 2014, published 2017).

Tests used:
Type in all cases: in vivo, human
[1] = test system: adult patients with MDD; test: Response rate by treatment and genetic subgroup (responders: 50% decrease in MADRS total score from baseline at week 8); details: for Response rate: 20 mg/day, 8 weeks; for No Response (number of subjects) / Response (number of subjects): Lu 20 mg only
Protocol: (§1) Multicenter, randomized, double-blind, parallel-group, placebo-controlled, drug-referenced, fixed-dose studies were conducted to evaluate the efficacy and safety of vortioxetine (10, 15 and 20 mg/Day) in the acute treatment of adult patients with MDD. A total of 595 individuals meeting the diagnostic criteria from the DSM-IV-TR for recurrent MDD were included in the studies. The current major depressive disorder for each individual was confirmed by the Structured Clinical Interview for DSM Disorders (SCID). […] Individuals were treated with 10, 15 or 20 mg vortioxetine, or a different drug, or a placebo daily for 8 weeks.
(§2) Subjects were seen weekly during the first 2 weeks of treatment and then every 2 weeks up to the end of the 8-week treatment period. The primary outcome measure was change from baseline in MADRS total score after 8 Weeks of treatment. The Montgomery Asberg Depression Rating Scale (MADRS) is a depression rating scale consisting of 10 items, each rated 0 (no symptom) to 6 (severe symptom). The 10 items represent the core symptoms of depressive illness. The rating is based on a clinical interview with the patient, moving from broadly phrased questions about symptoms to more detailed ones, which allow a precise rating of severity, covering the most recent 7 days. Total score is from 0 to 60, with a higher the score being the more severe.
Secondary outcome measures included the proportion of responders at week 8 (responders defined as a 50% decrease in MADRS total score from baseline); a change from baseline in MADRS total score at week 8; and a change in clinical status using CGI-I score at week 8. The Clinical Global Impression—Global Improvement (CGI-I) scale is a 7-point scale rated from 1 (very much improved) to 7 (very much worse). The investigator rated the patient's overall improvement relative to baseline, whether or not, in the opinion of the investigator, this was entirely due to the drug treatment.
Nucleic acid samples from the individuals were run on an Illumina™ HumanOmni5EXOME whole genome bead-chip array according to the manufacturer's protocol. The raw dataset of 595 samples times 4,641,218 variants was narrowed to 473 samples times 3,923,897 variants following quality control (QC).
(§3) A composite score (or genetic score) was calculated via penalized regression using a set of focused genomic regions. The cutoff point of the genetic score that maximizes treatment specific effect was then identified. Statistical significance (via a parametric bootstrap approach) of the treatment effect for the subgroup defined by the optimal cutpoint was then determined.

[2] = test system: MDD individuals; test: Treatment effect by MADRS and HAM-A scores in genetic subgroups; details: for Treatment-specific effect (MADRS scores): 5-variant and 7-variant models
Protocol: as §1, §2, §3
A least square means plot of MADRS scores obtained during treatment with 10 mg vortioxetine is shown in FIG. 12B using the 7-variant model. […]

[3] = test system: adult MDD patients; test: Cognition, Cognitive and Physical Functioning Questionnaire (CPFQ); details: for Cognition (CPFQ): 7-variant model, adult MDD patients
Excerpt: According to the CDC, cognitive impairment is when a person has trouble remembering, learning new things, concentrating, or making decisions that affect their everyday life. Cognitive impairment ranges from mild to severe. With mild impairment, people may begin to notice changes in cognitive functions, but still be able to do their everyday activities. Severe levels of impairment can lead to losing the ability to understand the meaning or importance of something and the ability to talk or write, resulting in the inability to live independently. Cognitive ability can be assessed by, for example, Massachusetts General Hospital Cognitive and Physical Functioning Questionnaire (see, e.g., Fava et al., J. Clin. Psychiatry, 67:11 (2006)) and/or the Digit Symbol Substitution Test (DSST) (see Mahableshwarker et al., Neuropsychopharmacology, in press 2015).
In FIG. 13, the term “SNP7=1” corresponds to patients in the subgroup identified by the 7-variant model; the term “SNP7=0” corresponds to patients not in the subgroup.

## Br.Cc1ccc(Sc2ccccc2N2CCNCC2)c(C)c1 [vortioxetine, 1-[2-(2,4-Dimethyl-phenylsulfanyl)-phenyl]-piperazine, hydrobromide]
[1]; COL26A1 rs4045 and a CACNA1C variant positive
  Response rate: 14/17
[1]; Total
  Response rate: 40/120
[1]; Variant negative
  Response rate: 6/25
[1]; subgroup N/A
  Response rate: 28/78
[1]; <NA>
  No Response (number of subjects): 50
  Response (number of subjects): 28
[1]; In the Subgroup
  No Response (number of subjects): 3
  Response (number of subjects): 14
[1]; Not in Subgroup
  No Response (number of subjects): 19
  Response (number of subjects): 6
[2]; 10 mg
  Treatment-specific effect (MADRS scores): evidence for a treatment-specific effect
[2]; 20 mg
  Treatment-specific effect (MADRS scores): evidence for a treatment-specific effect
[2]; MDD individuals with rs4045 and a CACNA1C variant
  Response to treatment as measured by MADRS and HAM-A scores: significantly enhanced response
[3]; 10 mg/day
  Cognition (CPFQ): evidence for improved cognition
[3]; 20 mg/day
  Cognition (CPFQ): evidence for improved cognition
[3]; individuals with COL26A1 rs4045 and a CACNA1C variant, 20 mg/day for 8 weeks
  Cognition: improved cognition
